In general, EC50 refers to the concentration needed to bring the measured effect to its halfway point. Higher therefore signals a less potent agent.

EC50 data for four compounds are collected here from BindingDB's records for patent US9290451 (Hoffmann-La Roche Inc, 2016).

One assay concerns the target Cannabinoid receptor 2 (Homo sapiens, UniProt P34972). As to the kind of experiment: cAMP Assay. The note with it: 37 °C. The protocol: (§1) CHO cells expressing human CB1 or CB2 receptors are seeded 17-24 hours prior to the experiment 50.000 cells per well in a black 96 well plate with flat clear bottom (Corning Costar #3904) in DMEM (Invitrogen No. 31331), 1×HT supplement, with 10% fetal calf serum and incubated at 5% CO2 and 37° C. in a humidified incubator. The growth medium was exchanged with Krebs Ringer Bicarbonate buffer with 1 mM IBMX and incubated at 30° C. for 30 min Compounds were added to a final assay volume of 100 ul and incubated for 30 min at 30° C. Using the cAMP-Nano-TRF detection kit the assay (Roche Diagnostics) was stopped by the addition of 50 ul lysis reagent (Tris, NaCl, 1.5% Triton X100, 2.5% NP40, 10% NaN3) and 50 ul detection solutions (20 uM mAb Alexa700-cAMP 1:1, and 48 uM Ruthenium-2-AHA-cAMP) and shaken for 2 h at room temperature. The time-resolved energy transfer is measured by a TRF reader (Evotec Technologies GmbH), equipped with a ND:YAG laser as excitation source. The plate is measured twice with the excitation at 355 nm and at the emission with a delay of 100 ns and a gate of 100 ns, total exposure time 10 s at 730 (bandwidth 30 nm) or 645 nm (bandwidth 75 nm), respectively. The FRET signal is calculated.

Another assay addresses Cannabinoid receptor 1 (Homo sapiens, UniProt P21554). As to the kind of experiment: cAMP Assay. The note with it: 37 °C. The protocol: as §1

Sequence of Cannabinoid receptor 1 (P21554 whole entry): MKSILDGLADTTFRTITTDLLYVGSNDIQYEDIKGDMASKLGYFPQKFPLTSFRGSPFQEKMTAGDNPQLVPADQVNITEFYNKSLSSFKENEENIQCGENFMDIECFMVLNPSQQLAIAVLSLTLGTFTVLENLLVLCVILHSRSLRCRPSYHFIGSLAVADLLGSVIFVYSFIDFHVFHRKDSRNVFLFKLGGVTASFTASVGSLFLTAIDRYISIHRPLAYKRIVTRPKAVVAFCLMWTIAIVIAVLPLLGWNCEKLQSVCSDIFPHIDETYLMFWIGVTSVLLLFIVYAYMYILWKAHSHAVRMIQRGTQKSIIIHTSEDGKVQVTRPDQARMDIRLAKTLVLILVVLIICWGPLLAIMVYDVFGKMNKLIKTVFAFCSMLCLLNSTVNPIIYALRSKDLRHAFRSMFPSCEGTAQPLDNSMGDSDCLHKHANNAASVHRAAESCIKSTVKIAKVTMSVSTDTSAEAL
Sequence of Cannabinoid receptor 2 (P34972 whole entry): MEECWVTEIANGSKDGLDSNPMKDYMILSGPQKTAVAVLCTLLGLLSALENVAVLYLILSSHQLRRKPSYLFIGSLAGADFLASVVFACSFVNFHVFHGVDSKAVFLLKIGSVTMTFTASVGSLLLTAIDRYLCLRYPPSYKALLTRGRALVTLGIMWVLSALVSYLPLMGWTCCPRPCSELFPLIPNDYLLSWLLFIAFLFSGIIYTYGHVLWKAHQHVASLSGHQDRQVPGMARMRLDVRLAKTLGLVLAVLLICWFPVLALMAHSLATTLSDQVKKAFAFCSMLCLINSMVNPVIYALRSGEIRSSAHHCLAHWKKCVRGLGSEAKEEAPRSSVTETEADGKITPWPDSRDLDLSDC

As for `O=C(c1ccc(C2CCCC2)c(OCC2CC2)n1)N1CCS(=O)(=O)CC1` [US9290451, 39], the EC50 at Cannabinoid receptor 2 is 303 nM; at Cannabinoid receptor 1 it was over 10000 nM.

As for `O=C(c1ccc(C2CC2)c(-c2cccc(Cl)c2)n1)N1CCS(=O)(=O)CC1` [US9290451, 48], the EC50 at Cannabinoid receptor 2 is 477 nM; on Cannabinoid receptor 1 it was over 10000 nM.

`CC(C)(CO)NC(=O)c1ccc(NC2CC2)c(OCC2CC2)n1` [US9290451, 159]: the figures for the EC50 on Cannabinoid receptor 2 and on Cannabinoid receptor 1 were 780 nM and over 10000 nM, respectively.

For the compound `Cc1cnc(C(C)(C)NC(=O)c2ccc(N3CC(F)(F)C3)c(OCC3CC3)n2)s1` [US9290451, 353], the EC50 at Cannabinoid receptor 2 was 4.9 nM; on Cannabinoid receptor 1, over 10000 nM.
